From PubChem BioAssay (NCI)
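96-well plates; 48 h exposure; 5 concentrations. Endpoints by linear interpolation between flanking doses. Not reached: highest tested concentration assigned. GI50: concentration for 50% inhibition of growth. TGI: concentration producing complete growth inhibition.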

How the values were obtained:
Test in all cases: DTP human tumour cell line panel, 48 h
[1] = test system: HT29 colon
[2] = test system: SW-620 colon
[3] = test system: SK-OV-3 ovarian
[4] = test system: HS 578T breast
[5] = test system: MDA-MB-435
[6] = test system: UACC-257 melanoma
[7] = test system: HCT-116 colon
[8] = test system: OVCAR-4 ovarian
[9] = test system: UACC-62 melanoma
[10] = test system: NCI-H226 lung
[11] = test system: HCC-2998 colon
[12] = test system: A498 renal
[13] = test system: EKVX NSCLC
[14] = test system: SK-MEL-5 melanoma
[15] = test system: T-47D breast
[16] = test system: MDA-MB-231 breast
[17] = test system: U251 CNS
[18] = test system: MALME-3M melanoma
[19] = test system: OVCAR-3 ovarian
[20] = test system: CCRF-CEM leukemia
[21] = test system: OVCAR-5 ovarian
[22] = test system: SNB-75 CNS
[23] = test system: MCF7 breast
[24] = test system: A549 NSCLC
[25] = test system: HOP-92 NSCLC
[26] = test system: KM12 colon
[27] = test system: SF-539 CNS
[28] = test system: SR leukemia
[29] = test system: SN12C renal
[30] = test system: MOLT-4 leukemia
[31] = test system: COLO 205 colon
[32] = test system: HL-60(TB) leukemia
[33] = test system: DU-145 prostate
[34] = test system: BT-549 breast
[35] = test system: RXF 393 renal
[36] = test system: RPMI-8226 leukemia
[37] = test system: NCI-H460 lung
[38] = test system: UO-31 renal
[39] = test system: IGROV1 ovarian
[40] = test system: ACHN renal
[41] = test system: SK-MEL-2 melanoma
[42] = test system: M14 melanoma
[43] = test system: TK-10 renal
[44] = test system: K-562 leukemia
[45] = test system: NCI/ADR-RES ovarian
[46] = test system: SF-295 CNS
[47] = test system: SNB-19 CNS
[48] = test system: 786-0 renal
[49] = test system: SF-268 CNS
[50] = test system: PC-3 prostate
[51] = test system: SK-MEL-28 melanoma
[52] = test system: CAKI-1 renal
[53] = test system: HCT-15 colon
[54] = test system: MDA-MB-468 breast
[55] = test system: LOX IMVI melanoma
[56] = test system: HOP-62 NSCLC
[57] = test system: NCI-H522 lung
[58] = test system: NCI-H23 lung
[59] = test system: OVCAR-8 ovarian

Work on Cc1ccc(C(=O)C[n+]2cccc3c4ccccc4ccc32)cc1 yielded a GI50 [1] of 5.6 µM, a TGI [1] of 48.4 µM and a GI50 [2] of 13.4 µM. For the same molecule, the TGI [2] was 87.1 µM, the GI50 [3] was 22.1 µM and the TGI [3] was greater than 100 µM. For the same molecule, the GI50 [4] was 15.8 µM, the TGI [4] was 83.4 µM and the GI50 [5] was 14.2 µM. It also gave a TGI [5] of 29.8 µM, a GI50 [6] of 10.3 µM and a TGI [6] of 25.7 µM. It also gave a GI50 [7] of 6.64 µM, a TGI [7] of 28.6 µM and a GI50 [8] of 4.43 µM. It also gave a TGI [8] greater than 100 µM, a GI50 [9] of 12.6 µM and a TGI [9] of 26.5 µM. For the same molecule, the GI50 [10] was 5.18 µM, the TGI [10] was 42.9 µM and the GI50 [11] was 13.6 µM. For the same molecule, the TGI [11] was 28.3 µM, the GI50 [12] was 24.1 µM and the TGI [12] was greater than 100 µM. For the same molecule, the GI50 [13] was 7.26 µM, the TGI [13] was greater than 100 µM and the GI50 [14] was 3.73 µM. It also gave a TGI [14] of 14.8 µM, a GI50 [15] of 6.57 µM and a TGI [15] of 46.2 µM. The GI50 [16] was 14.4 µM, the TGI [16] was 40.8 µM and the GI50 [17] was 9.32 µM. It also gave a TGI [17] of 34.8 µM, a GI50 [18] of 13.9 µM and a TGI [18] of 27.4 µM. For the same molecule, the GI50 [19] was 6.1 µM, the TGI [19] was 52.3 µM and the GI50 [20] was 13.1 µM. It also gave a TGI [20] of 70 µM, a GI50 [21] of 20.4 µM and a TGI [21] greater than 100 µM. It also gave a GI50 [22] of 8.73 µM, a TGI [22] of 61.9 µM and a GI50 [23] of 5.44 µM. The TGI [23] was 24.4 µM, the GI50 [24] was 11 µM and the TGI [24] was greater than 100 µM. For the same molecule, the GI50 [25] was 6.11 µM, the TGI [25] was 40.8 µM and the GI50 [26] was 16 µM. It also gave a TGI [26] of 65 µM, a GI50 [27] of 16.9 µM and a TGI [27] of 58.7 µM. It also gave a GI50 [28] of 29.7 µM, a TGI [28] greater than 100 µM and a GI50 [29] of 12.5 µM. The TGI [29] was greater than 100 µM, the GI50 [30] was 13.2 µM and the TGI [30] was 83.9 µM. For the same molecule, the GI50 [31] was 9.03 µM, the TGI [31] was 25.5 µM and the GI50 [32] was 3.75 µM. It also gave a TGI [32] of 21.1 µM, a GI50 [33] of 18.5 µM and a TGI [33] greater than 100 µM. It also gave a GI50 [34] of 5.68 µM, a TGI [34] of 18.9 µM and a GI50 [35] of 3.82 µM. For the same molecule, the TGI [35] was 21.6 µM, the GI50 [36] was 3.87 µM and the TGI [36] was 21.9 µM. It also gave a GI50 [37] of 10.5 µM, a TGI [37] of 25.8 µM and a GI50 [38] of 19.9 µM. The TGI [38] was greater than 100 µM, the GI50 [39] was 19.1 µM and the TGI [39] was 82.5 µM. It also gave a GI50 [40] of 15.9 µM, a TGI [40] greater than 100 µM and a GI50 [41] of 14.5 µM. The TGI [41] was 52.5 µM, the GI50 [42] was 11.1 µM and the TGI [42] was 29.2 µM. The GI50 [43] was 26.4 µM, the TGI [43] was greater than 100 µM and the GI50 [44] was 2.45 µM. For the same molecule, the TGI [44] was greater than 100 µM, the GI50 [45] was greater than 100 µM and the TGI [45] was greater than 100 µM. It also gave a GI50 [46] of 7.05 µM, a TGI [46] of 29.1 µM and a GI50 [47] of 18.5 µM. For the same molecule, the TGI [47] was greater than 100 µM, the GI50 [48] was 18.6 µM and the TGI [48] was 48.3 µM. The GI50 [49] was 17.2 µM, the TGI [49] was greater than 100 µM and the GI50 [50] was 5.53 µM. It also gave a TGI [50] of 59.4 µM, a GI50 [51] of 14.8 µM and a TGI [51] of 32.6 µM. For the same molecule, the GI50 [52] was 15.6 µM, the TGI [52] was 71.1 µM and the GI50 [53] was 28.1 µM. The TGI [53] was greater than 100 µM, the GI50 [54] was 1.61 µM and the TGI [54] was 7.72 µM. It also gave a GI50 [55] of 11.2 µM, a TGI [55] of 24.1 µM and a GI50 [56] of 11.8 µM. The TGI [56] was greater than 100 µM, the GI50 [57] was 6.66 µM and the TGI [57] was 24.6 µM. For the same molecule, the GI50 [58] was 10.6 µM, the TGI [58] was 49 µM and the GI50 [59] was 6.97 µM. It also gave a TGI [59] greater than 100 µM.
